# Results taken from patent US20240091324A1, “GASTROINTESTINAL HEALTH COMPOSITION” (priority 2019, published 2024).
# Experiments:
# [1] = system: MUC12; experiment: qPCR of MUC gene expression in Caco-2:HT-29-MTX 75:25 coculture; assay type: cell-based, human; details: 24 h
# Description: (§1) Caco-2:HT-29-MTX 75:25 coculture: This co-culture model was used to simulate the human colonic epithelium (Hilgendorh C, 2000). The Caco-2 cells (passage 8) and the HT29-MTX cells (passage 9) were combined at a 75:25 ratio in DMEM with 10% FBS. The combined cells (6.4×10^4 cells/ml) were seeded into 25 cm^2 in a total of 5 ml per flask. The coculture was incubated at 37° C. in a 5% CO2 atmosphere with medium refreshed every 48 h. At 15 days post seeding, the coculture monolayer was washed three times in DMEM and replaced with 5 ml of pre-warmed test solution, and then incubated for 24 h.
# (§2) Before RNA extraction, cells were collected by centrifugation at 5,000 g for 5 min, 4° C. the cell pellet was washed three times in ice-cold PBS followed by resuspension in 500 μl of ice-cold PBS. The total RNA of 2×10^6 cells per sample was extracted using a PureLink RNA mini kit with 1.5 μg of RNA (with A260/A280 ratio between 2.00 and 2.20) reverse-transcribed into cDNA using a High Capacity cDNA RT kit. The expression of the genes of interest was quantified using the PowerUp SYBR green Master mix. In brief, triplicate qPCR reactions was set up using 20 ng cDNA and 500 nM primers in a MicroAmp optical 384-well reaction plates using a Biomek-4000 automated liquid handler (Beckman Coulter, Brea, CA, USA). Amplification was run in a ViiA7 Real-Time PCR system (Thermo Fisher Scientific) at the following conditions: 95° C. for 20 seconds followed by 40 cycles of 95° C. for 1 second and 60° C. for 20 seconds; and a melt curve stage: 95° C., 15 s; 60° C., 60 s. The results of qPCR were analysed with the 2-ΔΔCT method as previously described using the QuantStudio Software V1.3 (Applied Biosystems). Relative gene expression values were normalized by using GAPDH and 18S as the multiple endogenous reference genes.
# (§3) A 75:25 caco-2/HT-29 co-culture was established as previously described herein and the effect of a 24 h exposure to bromelain, threonine, sodium butyrate, vitamin D3 and the two different GaRP formulations on the expression of the following MUC genes was investigated using qPCR. At the end of the 24 h treatment, the supernatant in the 25 cm^2 flasks was collected and the coculture monolayer was trypsinised as previously described herein.
# as §1, with “This” for “Caco-2:HT-29-MTX 75:25 coculture: This”, “epithelium.” for “epithelium (Hilgendorh C, 2000).”
# (§4) The test solutions of cholecalciferol (VD3) and L-Threonine (L-Thr) (Sigma-Aldrich) in culture medium were prepared one day before the treatment. At 15 days post seeding, the coculture monolayer was washed three times at hourly interval with culture medium, which was then replaced with 5 ml of pre-warmed test solution, and then incubated for 24 h.
# (§5) At the end of the 24 h treatment, the supernatant in the 25 cm^2 flasks was collected and the coculture monolayer was trypsinised as previously described. Cells were collected by centrifugation at 5,000 g for 5 min, 4° C. After washed three times with ice-cold PBS, the cells were resuspended in 500 μl of ice-cold PBS. The total RNA of 2×10^6 cells per sample was extracted using the PureLink RNA mini kit (Invitrogen). For real-time PCR analysis, 1.5 μg of RNA (with A260/A280 ratio between 2.00 and 2.20) was reverse transcribed into cDNA using the High Capacity cDNA RT kit (Applied Biosystems, Foster City, CA, USA).
# (§6) The expression of the human MUC2 and MUC7 genes in the Caco-2:HT-29-MTX 75:25 coculture was quantified using the PowerUp SYBR green Master mix (Applied Biosystems). […]
# [2] = system: MUC13; experiment: as above; assay type: cell-based, human; details: 24 h
# Description: as §1, §2, §3
# as §1, with “This” for “Caco-2:HT-29-MTX 75:25 coculture: This”, “epithelium.” for “epithelium (Hilgendorh C, 2000).”
# as §4, §5, §6
# [3] = system: MUC15; experiment: as above; assay type: cell-based, human; details: 24 h
# Description: as §1, §2, §3
# as §1, with “This” for “Caco-2:HT-29-MTX 75:25 coculture: This”, “epithelium.” for “epithelium (Hilgendorh C, 2000).”
# as §4, §5, §6
# [4] = system: MUC16; experiment: as above; assay type: cell-based, human; details: 24 h
# Description: as §1, §2, §3
# as §1, with “This” for “Caco-2:HT-29-MTX 75:25 coculture: This”, “epithelium.” for “epithelium (Hilgendorh C, 2000).”
# as §4, §5, §6
# [5] = system: MUC17; experiment: as above; assay type: cell-based, human; details: 24 h
# Description: as §1, §2, §3
# as §1, with “This” for “Caco-2:HT-29-MTX 75:25 coculture: This”, “epithelium.” for “epithelium (Hilgendorh C, 2000).”
# as §4, §5, §6
# [6] = system: MUC19; experiment: as above; assay type: cell-based, human; details: 24 h
# Description: as §1, §2, §3
# as §1, with “This” for “Caco-2:HT-29-MTX 75:25 coculture: This”, “epithelium.” for “epithelium (Hilgendorh C, 2000).”
# as §4, §5, §6
# [7] = system: MUC1; experiment: as above; assay type: cell-based, human; details: 24 h
# Description: as §1, §2, §3
# as §1, with “This” for “Caco-2:HT-29-MTX 75:25 coculture: This”, “epithelium.” for “epithelium (Hilgendorh C, 2000).”
# as §4, §5, §6
# [8] = system: MUC20; experiment: as above; assay type: cell-based, human; details: 24 h
# Description: as §1, §2, §3
# as §1, with “This” for “Caco-2:HT-29-MTX 75:25 coculture: This”, “epithelium.” for “epithelium (Hilgendorh C, 2000).”
# as §4, §5, §6
# [9] = system: MUC2; experiment: as above; assay type: cell-based, human; details: 24 h
# Description: as §1, §2, §3
# as §1, with “This” for “Caco-2:HT-29-MTX 75:25 coculture: This”, “epithelium.” for “epithelium (Hilgendorh C, 2000).”
# as §4, §5, §6
# [10] = system: MUC3; experiment: as above; assay type: cell-based, human; details: 24 h
# Description: as §1, §2, §3
# as §1, with “This” for “Caco-2:HT-29-MTX 75:25 coculture: This”, “epithelium.” for “epithelium (Hilgendorh C, 2000).”
# as §4, §5, §6
# [11] = system: MUC4; experiment: as above; assay type: cell-based, human; details: 24 h
# Description: as §1, §2, §3
# as §1, with “This” for “Caco-2:HT-29-MTX 75:25 coculture: This”, “epithelium.” for “epithelium (Hilgendorh C, 2000).”
# as §4, §5, §6
# [12] = system: MUC5AC; experiment: as above; assay type: cell-based, human; details: 24 h
# Description: as §1, §2, §3
# as §1, with “This” for “Caco-2:HT-29-MTX 75:25 coculture: This”, “epithelium.” for “epithelium (Hilgendorh C, 2000).”
# as §4, §5, §6
# [13] = system: MUC5B; experiment: as above; assay type: cell-based, human; details: 24 h
# Description: as §1, §2, §3
# as §1, with “This” for “Caco-2:HT-29-MTX 75:25 coculture: This”, “epithelium.” for “epithelium (Hilgendorh C, 2000).”
# as §4, §5, §6
# [14] = system: MUC6; experiment: as above; assay type: cell-based, human; details: 24 h
# Description: as §1, §2, §3
# as §1, with “This” for “Caco-2:HT-29-MTX 75:25 coculture: This”, “epithelium.” for “epithelium (Hilgendorh C, 2000).”
# as §4, §5, §6
# [15] = system: MUC7; experiment: as above; assay type: cell-based, human; details: 24 h
# Description: as §1, §2, §3
# as §1, with “This” for “Caco-2:HT-29-MTX 75:25 coculture: This”, “epithelium.” for “epithelium (Hilgendorh C, 2000).”
# as §4, §5, §6
# [16] = system: MUC8; experiment: as above; assay type: cell-based, human; details: 24 h
# Description: as §1, §2, §3
# as §1, with “This” for “Caco-2:HT-29-MTX 75:25 coculture: This”, “epithelium.” for “epithelium (Hilgendorh C, 2000).”
# as §4, §5, §6
# [17] = system: Bacteria (AIEC obtained from IBD and IBS patients); experiment: Observed therapeutic effective dose determined in the in vitro experiments (Table 4); assay type: cell-based, E. coli; details: Not relevant = no anti-attachment or anti-invasive effect on the AIEC
# Description: (§7) The observed therapeutic effective dose was determined in the in vitro experiments described herein.
# (§8) Table 4 summarises the observed therapeutic effective dose for each GaRP formulation component.
# [18] = system: Enterocyte; experiment: as above; assay type: cell-based, human
# Description: as §7, §8
# [19] = system: Macrophage; experiment: as above; assay type: cell-based, human
# Description: as §7, §8
smiles,measurement,setting,value
"C=C1CC[C@H](O)C/C1=C/C=C1\CCC[C@]2(C)[C@@H]([C@H](C)CCCC(C)C)CC[C@@H]12 [Vitamin D3, Cholecalciferol]","Effect on MUC gene expression, MUC12",[1]; 0.048 μg/ml vitamin D3,No effect
same,"Effect on MUC gene expression, MUC12",[1]; 0.48 μg/ml vitamin D3,No effect
same,"Effect on MUC gene expression, MUC13: Decreased by",[2]; 0.048 μg/ml vitamin D3,by 37%
same,"Effect on MUC gene expression, MUC13: Decreased by",[2]; 0.48 μg/ml vitamin D3,by 56%
same,"Effect on MUC gene expression, MUC15",[3]; 0.048 μg/ml vitamin D3,No effect
same,"Effect on MUC gene expression, MUC15",[3]; 0.48 μg/ml vitamin D3,No effect
same,"Effect on MUC gene expression, MUC16",[4]; 0.048 μg/ml vitamin D3,No effect
same,"Effect on MUC gene expression, MUC16",[4]; 0.48 μg/ml vitamin D3,No effect
same,"Effect on MUC gene expression, MUC17: Decreased by",[5]; 0.048 μg/ml vitamin D3,by 31%
same,"Effect on MUC gene expression, MUC17: Decreased by",[5]; 0.48 μg/ml vitamin D3,by 40%
same,"Effect on MUC gene expression, MUC19",[6]; 0.048 μg/ml vitamin D3,No effect
same,"Effect on MUC gene expression, MUC19",[6]; 0.48 μg/ml vitamin D3,No effect
same,"Effect on MUC gene expression, MUC1: Decreased by",[7]; 0.048 μg/ml vitamin D3,by 37%
same,"Effect on MUC gene expression, MUC1: Decreased by",[7]; 0.48 μg/ml vitamin D3,by 58%
same,"Effect on MUC gene expression, MUC20: Decreased by",[8]; 0.048 μg/ml vitamin D3,by 18%
same,"Effect on MUC gene expression, MUC20: Decreased by",[8]; 0.48 μg/ml vitamin D3,by 27%
same,"Effect on MUC gene expression, MUC2",[9]; 0.048 μg/ml vitamin D3,No effect
same,"Effect on MUC gene expression, MUC2",[9]; 0.48 μg/ml vitamin D3,No effect
same,"effect on the expression of MUC2, individually","[9]; titration, FIGS. 9A & 9B",did not exert a major effect
same,"Effect on MUC gene expression, MUC3: Decreased by",[10]; 0.048 μg/ml vitamin D3,by 43%
same,"Effect on MUC gene expression, MUC3",[10]; 0.48 μg/ml vitamin D3,No effect
same,"Effect on MUC gene expression, MUC4",[11]; 0.048 μg/ml vitamin D3,No effect
same,"Effect on MUC gene expression, MUC4",[11]; 0.48 μg/ml vitamin D3,No effect
same,"Effect on MUC gene expression, MUC5AC: Decreased by",[12]; 0.048 μg/ml vitamin D3,by 42%
same,"Effect on MUC gene expression, MUC5AC: Decreased by",[12]; 0.48 μg/ml vitamin D3,by 42%
same,"Effect on MUC gene expression, MUC5B: Decreased by",[13]; 0.048 μg/ml vitamin D3,by 56%
same,"Effect on MUC gene expression, MUC5B: Decreased by",[13]; 0.48 μg/ml vitamin D3,by 63%
same,"Effect on MUC gene expression, MUC6",[14]; 0.048 μg/ml vitamin D3,No effect
same,"Effect on MUC gene expression, MUC6",[14]; 0.48 μg/ml vitamin D3,No effect
same,"Effect on MUC gene expression, MUC7",[15]; 0.048 μg/ml vitamin D3,No effect
same,"Effect on MUC gene expression, MUC7",[15]; 0.48 μg/ml vitamin D3,No effect
same,"effect on the expression of MUC7, individually","[15]; titration, FIGS. 9A & 9B",did not exert a major effect
same,"Effect on MUC gene expression, MUC8: Decreased by",[16]; 0.048 μg/ml vitamin D3,by 30%
same,"Effect on MUC gene expression, MUC8: Decreased by",[16]; 0.48 μg/ml vitamin D3,by 50%
same,"observed therapeutic effective dose, Target cell Bacteria (fg/cell)",[17],Not relevant
same,"observed therapeutic effective dose, Target cell Enterocyte (pg/cell)",[18],0.018 pg/cell
same,"observed therapeutic effective dose, Target cell Macrophage (pg/cell)",[19],0.36 pg/cell
